Experimental data from patent publication EP1614683B1, “Indazole compounds and pharmaceutical compositions for inhibiting protein kinases, and methods for their use” (priority 1999, dated 2001).
Like-named read-outs stand apart in the source and are kept apart here.

Experiments:
human FAK (FAKcd409) = target: T1, human FAK (FAKcd409) (Homo sapiens, UniProt Q05397, P410T); experiment: FAK fluorescence polarization assay; assay type: biochemical; settings: Table 5; 1 µM; read-out: % Inhibition @ 1 µM FAK
T1 construct: comprises residues methionine 409 to glutamate 689; made in house; host or cells: baculovirus vector expression system (insect cells)
T1 sequence (Q05397 409-689 P410T): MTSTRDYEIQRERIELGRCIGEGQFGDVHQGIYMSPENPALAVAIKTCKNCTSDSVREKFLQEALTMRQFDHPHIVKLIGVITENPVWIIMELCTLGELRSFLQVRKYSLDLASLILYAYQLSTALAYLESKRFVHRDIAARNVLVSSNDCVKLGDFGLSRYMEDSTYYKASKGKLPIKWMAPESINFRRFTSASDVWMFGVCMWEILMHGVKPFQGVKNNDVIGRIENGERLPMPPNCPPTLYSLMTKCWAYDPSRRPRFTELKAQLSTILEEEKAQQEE
Procedure, shortened: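 Baculovirus-expressed FAK catalytic domain (FAKcd409, 5 nM) phosphorylating 1 mg/ml poly Glu-Tyr (4:1) with 1 mM ATP in 100 mM Hepes pH 7.5, 10 mM MgCl2, 1 mM DTT. Stopped with EDTA; fluorescent peptide and anti-phosphotyrosine antibody added, product detected by fluorescence polarization.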

[1] = system: human umbilical vein endothelial cells (HUVEC); experiment: HUVEC proliferation assay (VEGF-stimulated, MTT); assay type: cell-based; settings: Homo sapiens, HUVEC, Table 1
human CHK1 (FL-CHK1) = target: T2, human CHK1 (FL-CHK1) (Homo sapiens, UniProt O14757); experiment: CHK1 coupled spectrophotometric assay; assay type: biochemical; settings: read-out: CHK -1* (% inhibition)
T2 construct: C-terminally His-tagged full-length human CHK1 (FL-CHK1) was expressed using the baculovirus/insect cell system; made in house; host or cells: baculovirus/insect cell system
T2 sequence (O14757 1-476): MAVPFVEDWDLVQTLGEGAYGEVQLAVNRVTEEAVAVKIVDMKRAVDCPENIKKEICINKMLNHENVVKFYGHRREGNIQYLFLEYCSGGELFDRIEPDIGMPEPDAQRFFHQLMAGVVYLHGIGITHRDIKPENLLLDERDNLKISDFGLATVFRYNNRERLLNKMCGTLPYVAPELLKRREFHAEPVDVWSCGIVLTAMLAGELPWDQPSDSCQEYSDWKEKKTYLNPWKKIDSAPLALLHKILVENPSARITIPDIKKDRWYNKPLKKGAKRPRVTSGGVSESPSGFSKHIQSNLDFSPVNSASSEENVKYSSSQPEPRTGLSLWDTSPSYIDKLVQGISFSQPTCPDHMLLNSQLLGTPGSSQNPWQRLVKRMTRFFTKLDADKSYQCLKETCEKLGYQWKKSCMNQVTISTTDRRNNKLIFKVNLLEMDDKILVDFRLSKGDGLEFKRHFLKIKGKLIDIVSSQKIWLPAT
Procedure, shortened: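 His-tagged full-length human CHK1 from baculovirus/insect cells, 10 nM, phosphorylating Syntide-2. ADP formation coupled via PK/LDH with PEP to NADH oxidation, followed as absorbance decrease at 340 nm. Ki from initial rates at varying compound concentrations.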

LCK tyrosine kinase = LCK tyrosine kinase (Homo sapiens, UniProt P06239, C224D/P223M); experiment: LCK spectrophotometric assay; assay type: biochemical; settings: Table 1; compound concentration 1 µM; read-out: Lck-P* (% inhibition)
Sequence of LCK tyrosine kinase (P06239 223-509 P223M/C224D): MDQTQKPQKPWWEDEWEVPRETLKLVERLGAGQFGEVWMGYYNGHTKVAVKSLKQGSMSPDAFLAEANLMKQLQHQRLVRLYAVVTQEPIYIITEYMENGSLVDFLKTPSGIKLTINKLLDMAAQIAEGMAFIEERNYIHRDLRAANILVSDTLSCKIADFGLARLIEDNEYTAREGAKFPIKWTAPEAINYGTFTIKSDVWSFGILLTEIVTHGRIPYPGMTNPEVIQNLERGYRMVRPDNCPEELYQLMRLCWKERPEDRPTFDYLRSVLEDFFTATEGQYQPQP
Protocol: The spectrophotometric assay was carried out as described above for VEGF-R2, except for the following changes in concentration: LCK = 60 nM, MgCl2 = 0 mM, poly(E4Y1) = 20 mM.

in vitro = in vitro ADME, human; settings: human liver microsomes, 5 µM test compound, 37 °C, 2 h
Procedure, shortened: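 HLM diluted to 5 mg/mL in 100 mM KPO4, preincubated 10 min at 37 °C with NADPH-regenerating system. Compound (5 µM final) incubated at 37 °C in triplicate, sampled at 0 and 2 h into ice-cold acetonitrile, then LC-MS analysis.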

CDK2/Cyclin A complex = CDK2/Cyclin A complex (Homo sapiens, UniProt P24941); experiment: CDK2/Cyclin A assay ([32P]ATP incorporation into Rb fragment); assay type: biochemical; settings: read-out: CDK2 * (% inhibition)
[2] = + albumin, read-out: HUVEC + albumin IC50

SMILES	inhibition at 1 µM (human FAK (FAKcd409)) [%]	IC50 [1, 2] [nM]	IC50 ([1]; read-out: HUVEC IC50) [nM]	inhibition at 1 µM (human CHK1 (FL-CHK1)) [%]	inhibition at 1 µM (LCK tyrosine kinase) [%]	% remain (HLM, 2 h) (in vitro) [%]	inhibition at 1 µM (CDK2/Cyclin A complex) [%]
CCn1nc(C)cc1C(=O)Nc1cc(C(=O)c2ccc3c(/C=C/c4ccccn4)n[nH]c3c2)ccc1C [Reference Example 41(ee), 6-[3-((1-Ethyl-3-methyl-1H-pyrazol-5-yl)carboxamido)-4-methylbenzoyl]-3-E-[2-(pyridin-2-yl)ethenyl]-1H-indazole]	7	4.3	0.24	0	13	47	0
CCn1nc(C)cc1C(=O)Nc1cccc(C(=O)c2ccc3c(/C=C/c4ccccn4)n[nH]c3c2)c1 [Reference Example 41(a), 6-[3-((1-Ethyl-3-methyl-1H-pyrazol-5-yl)carboxamido)benzoyl]. 3-E-[2-(pyridin-2-yl)ethenyl]-1H-indazole]	5	4.4	0.48	0	50	96	0
C#CCNC(=O)c1ccccc1Sc1ccc2c(/C=C/c3ccccn3)n[nH]c2c1 [Reference Example 35(cc), 6-[2-(2-Propynylcarbamoyl)phenylsulfany]-3-E-[2-(pyridin-2-yl)ethenyl]-1H-indazole]	7	1.6	0.05	0	15	31	5
CCn1nc(C)cc1C(=O)Nc1cccc(Oc2ccc3c(/C=C/c4ccccn4)n[nH]c3c2)c1 [Reference Example 31(d), 6-[3-((1-Ethyl-3-methyl-1H-pyrazol-5-yl)carboxamido)phenoxy]-3-E-[2-(pridin-2-yl)ethenyl]-1H-indazole]	6	~13	1.3	0	52	110	5
CCONC(=O)c1ccccc1Sc1ccc2c(/C=C/c3ccccn3)n[nH]c2c1 [Reference Example 35(dd), 6-[2-(ethoxycarbamoyl)phenylsufanyl]-3-E-[2-(pyridin-2-yl)ethenyl]-1H-indazole]	4	2.9	0.18	0	17	26	7
O=C(NNc1ccccn1)c1ccccc1Sc1ccc2c(/C=C/c3ccccn3)n[nH]c2c1 [Reference Example 35(n), 6-[2-(N^2-(pyrid-2-ylhydrazino)carbonyl)phenylsulfanyl]-3-E-[2-(pyridin-2-yl)ethenyl]-1H-indazole]	1	11	0.11	23	58	47	4
CCCn1nc(C)cc1C(=O)Nc1cccc(C(=O)c2ccc3c(/C=C/c4ccccn4)n[nH]c3c2)c1 [Reference Example 41(r)]	5	11		0	55	83	0
CC(C)ONC(=O)c1ccccc1Sc1ccc2c(/C=C/c3ccccn3)n[nH]c2c1 [Reference Example 35(k)]	7	2.2		0	6	14	8
